# Values of other authors in patent US8377476B2, “Butenafine hydrochloride-containing aqueous patch” (Teikoku Seiyaku Co., Ltd., priority 2008, dated 2013).
# Counter-ions that a name gives are not always drawn. Like-named read-outs stand apart in the source and are kept apart here.
structure (smiles),measurement,setting,value
CN(Cc1ccc(C(C)(C)C)cc1)Cc1cccc2ccccc12 [butenafine hydrochloride],Water-solubility,hydrochloride,low water-solubility
same,Water-solubility,listed as Butenafine hydrochloride,extremely poor water-solubility
